Structures are written as SMILES.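 In this assay, cells in 96-well plates receive the compound at five concentrations for 48 hours. Endpoints are linearly interpolated between the surrounding concentrations. The concentration for 50% growth inhibition is given as GI50.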 Calls of active or inactive are those of the source. No stated cut-off is given here; in the data, active = GI50 up to about 1.1 µM and inactive = higher.

Experimental findings from ChEMBL document CHEMBL1201862, “PubChem BioAssay data set” (2004) are described below.

Some test systems named below: ACHN; HCT-15; HL-60; HOP-62; HT-29; IGROV-1; K562; LOX IMVI; MDA-MB-435; MOLT-4; NCI-H522; OVCAR-4; RXF 393; SF-295; SK-OV-3; SN12C; SNB-19; SNB-75; HCC 2998; A498.
What all share (assay): inhibition of tumour cell growth, NCI panel, 48 h

On to `Nc1ccc(S(=O)(=O)Nc2nc3ccccc3nc2Nc2ccc(S(N)(=O)=O)cc2)cc1`, for which the GI50 in the assay with ACHN is 42.7 µM (inactive); in the assay with HCT-15, 37.7 µM; in the assay with HL-60, 25.1 µM (inactive); in the assay on HOP-62 it was 29.2 µM (inactive); in the assay with HT-29, 57.8 µM (inactive); in the assay with IGROV-1, 21.8 µM (inactive). The GI50 with K562 was 69.8 µM (inactive); in the assay on LOX IMVI it was 17.9 µM (inactive); in the assay with MDA-MB-435, 49.3 µM (inactive); with MOLT-4, 15.4 µM (inactive); in the assay with NCI-H522 it was 23.3 µM (inactive); with OVCAR-4 it was 2.45 µM (inactive). Further, the GI50 was 20.8 µM (inactive) in the assay with RXF 393; 26.9 µM (inactive) in the assay on SF-295; 29.8 µM (inactive) in the assay on SK-OV-3; 34.6 µM (inactive) with SN12C; 25.2 µM (inactive) in the assay on SNB-19; 13.6 µM (inactive) with SNB-75.

For the compound `Clc1ccc(C2=CCN3CC=C(c4ccc(Cl)cc4)C23)cc1`, the GI50 with ACHN is 13.7 µM (inactive); with HCC 2998 it was 3.06 µM (inactive); in the assay with HCT-15, 11.1 µM; with HL-60 it was 4.78 µM (inactive); with HOP-62, 13.8 µM (inactive); in the assay with HT-29, 5.21 µM (inactive). Besides, the GI50 was 9.93 µM (inactive) with IGROV-1; 3.17 µM (inactive) in the assay on K562; 8.34 µM (inactive) in the assay with LOX IMVI; 10.7 µM (inactive) in the assay on MDA-MB-435; 5.28 µM (inactive) in the assay on MOLT-4; 10.2 µM (inactive) with NCI-H522. Further, the GI50 in the assay with OVCAR-4 was 8.26 µM (inactive); with SF-295, 14.6 µM (inactive); in the assay with SN12C, 8.71 µM (inactive); in the assay with SNB-19, 14.5 µM (inactive).

As for `NC(=S)N/N=C/C(O[C@@H](/C=N/NC(N)=S)CO)n1cnc2c(N)ncnc21` (some centres undefined), the GI50 in the assay with A498 is > 100 µM (inactive); in the assay on ACHN it was > 100 µM (inactive); in the assay on HCC 2998 it was > 100 µM (inactive); in the assay with HCT-15 it was above 42.3 µM; with HL-60, 67 µM (inactive); with HOP-62, > 100 µM (inactive). Besides, the GI50 in the assay on HT-29 was > 62.5 µM (inactive); in the assay with IGROV-1, > 56.2 µM (inactive); with K562, > 54.7 µM (inactive); in the assay with LOX IMVI, > 100 µM (inactive); with MOLT-4 it was 50.7 µM (inactive); in the assay with NCI-H522, > 47.9 µM (inactive). In addition, the GI50 in the assay with OVCAR-4, in the assay with RXF 393, in the assay on SF-295, with SK-OV-3, with SN12C and with SNB-19 was > 100 µM (inactive) each time. The GI50 in the assay with SNB-75 was > 52.4 µM (inactive).

In the case of `O=C(CSCC(=O)N/N=C/c1ccccc1)N/N=C\c1ccccc1`, the GI50 in the assay with ACHN is > 100 µM (inactive); with HCT-15 it was above 100 µM; with HOP-62 it was > 100 µM (inactive); in the assay on HT-29, > 100 µM (inactive); in the assay on IGROV-1, > 100 µM (inactive); with K562 it was > 100 µM (inactive). The GI50 in the assay with LOX IMVI was > 100 µM (inactive); in the assay with MDA-MB-435 it was > 100 µM (inactive); in the assay on MOLT-4 it was 68.2 µM (inactive); in the assay with NCI-H522 it was > 100 µM (inactive); in the assay on OVCAR-4, > 100 µM (inactive); in the assay with RXF 393 it was 65.8 µM (inactive). The GI50 in the assay with SF-295, in the assay on SK-OV-3, with SN12C, in the assay with SNB-19 and in the assay with SNB-75 was > 100 µM (inactive) in each case.

Turning to `CN1CCN=C1c1nnn(-c2ccc([N+](=O)[O-])cc2)c1-c1ccccc1`, the GI50 was > 100 µM (inactive) with A498; > 100 µM (inactive) with ACHN; > 100 µM (inactive) in the assay on HCC 2998; above 100 µM in the assay with HCT-15; 18.8 µM (inactive) in the assay with HL-60; > 100 µM (inactive) with HOP-62. The GI50 is 64.9 µM (inactive) in the assay with HT-29; > 100 µM (inactive) in the assay with IGROV-1; 33.7 µM (inactive) in the assay on K562; 94.6 µM (inactive) in the assay on LOX IMVI; > 100 µM (inactive) in the assay on MOLT-4; > 100 µM (inactive) in the assay on NCI-H522. In addition, the GI50 in the assay on OVCAR-4, in the assay with RXF 393, in the assay on SF-295, in the assay on SK-OV-3, in the assay with SN12C and in the assay with SNB-19 was > 100 µM (inactive) each time. Moreover, the GI50 in the assay on SNB-75 is > 100 µM (inactive).

On to `c1ccc(-c2ccc(-c3cc4ccccc4[nH]3)cc2)cc1`, for which the GI50 was > 100 µM (inactive) with ACHN; > 100 µM (inactive) in the assay on HCC 2998; above 100 µM with HCT-15; 27.8 µM (inactive) in the assay with HL-60; > 100 µM (inactive) with HOP-62; > 100 µM (inactive) in the assay on HT-29. Also, the GI50 in the assay on IGROV-1 is > 100 µM (inactive); in the assay with LOX IMVI, > 100 µM (inactive); in the assay on MDA-MB-435, > 100 µM (inactive); in the assay with MOLT-4, > 100 µM (inactive); with NCI-H522 it was 60.3 µM (inactive); with OVCAR-4, > 100 µM (inactive). For the same compound, the GI50 with SF-295, with SK-OV-3, in the assay on SN12C, in the assay on SNB-19 and in the assay on SNB-75 was > 100 µM (inactive) throughout.

On to `CC1=CC(=O)NCCN1C`, for which the GI50 is > 100 µM (inactive) in the assay on A498; > 100 µM (inactive) in the assay on ACHN; > 100 µM (inactive) in the assay with HCC 2998; above 100 µM with HCT-15; 45.9 µM (inactive) in the assay with HL-60; > 100 µM (inactive) with HOP-62. For the same compound, the GI50 is > 100 µM (inactive) in the assay on HT-29; > 100 µM (inactive) with IGROV-1; 73.5 µM (inactive) in the assay on K562; 62.7 µM (inactive) with LOX IMVI; > 100 µM (inactive) with MOLT-4; > 100 µM (inactive) with NCI-H522. Moreover, the GI50 in the assay with OVCAR-4, in the assay with RXF 393, with SF-295, with SK-OV-3, in the assay with SN12C and in the assay on SNB-19 was > 100 µM (inactive) in each case. The GI50 with SNB-75 is > 100 µM (inactive).

On to `CC(=O)N1C/C(=C\c2ccccc2)C(=O)/C(=C/c2ccccc2)C1`, for which the GI50 with A498 is 16.8 µM (inactive); in the assay on ACHN it was 16.9 µM (inactive); in the assay with HCC 2998, 10.9 µM (inactive); in the assay on HCT-15, 8.38 µM; in the assay on HL-60 it was 1.68 µM (inactive); in the assay on HOP-62, 11.4 µM (inactive). In addition, the GI50 is 3.04 µM (inactive) with HT-29; 17.6 µM (inactive) in the assay with IGROV-1; 2.89 µM (inactive) in the assay on K562; 3.43 µM (inactive) with LOX IMVI; 4.2 µM (inactive) in the assay with MOLT-4; 12.3 µM (inactive) with NCI-H522. For the same compound, the GI50 in the assay with OVCAR-4 was 17.6 µM (inactive); in the assay on RXF 393, 16.2 µM (inactive); with SF-295, 13.4 µM (inactive); in the assay on SK-OV-3 it was 22.5 µM (inactive); with SN12C it was 14.4 µM (inactive); in the assay on SNB-19, 16.8 µM (inactive). The GI50 in the assay on SNB-75 is 20 µM (inactive).

As for `CC(=O)Oc1c2c(c(OC(C)=O)c3c1n(C(C)=O)c1ccccc1n3C(C)=O)n(C(C)=O)c1ccccc1n2C(C)=O`, the GI50 with A498 was 18.4 µM (inactive); in the assay with ACHN, 9.16 µM (inactive); in the assay with HCC 2998 it was 3.67 µM (inactive); in the assay on HCT-15, 3.27 µM; in the assay with HL-60, 2.67 µM (inactive); in the assay on HOP-62, 8.17 µM (inactive). Also, the GI50 in the assay with HT-29 was 3.18 µM (inactive); in the assay with IGROV-1 it was > 10 µM (inactive); in the assay on K562, 2.86 µM (inactive); in the assay on LOX IMVI it was 2.56 µM (inactive); in the assay on MOLT-4, 2.3 µM (inactive); in the assay with NCI-H522 it was 2.3 µM (inactive). Besides, the GI50 is 16.9 µM (inactive) in the assay on OVCAR-4; 8.38 µM (inactive) in the assay with RXF 393; 8.81 µM (inactive) in the assay with SF-295; 23.6 µM (inactive) with SK-OV-3; 3.27 µM (inactive) in the assay on SN12C; 12.4 µM (inactive) in the assay with SNB-19. Besides, the GI50 in the assay on SNB-75 was 11.5 µM (inactive).

For `CN(NC(=O)/C(=C\c1ccco1)NC(=O)c1ccccc1)c1cn[nH]c(=O)c1Cl`, the GI50 in the assay on ACHN was > 100 µM (inactive); in the assay with HCT-15 it was 57.3 µM; in the assay on HOP-62, 64.3 µM (inactive); with HT-29, 58.6 µM (inactive); with IGROV-1, 49.3 µM (inactive); in the assay on K562, 60.1 µM (inactive). Further, the GI50 is 23.2 µM (inactive) in the assay with LOX IMVI; > 100 µM (inactive) in the assay on MDA-MB-435; 29.6 µM (inactive) in the assay with MOLT-4; 28.1 µM (inactive) in the assay on NCI-H522; > 100 µM (inactive) in the assay on OVCAR-4; > 100 µM (inactive) in the assay with RXF 393. The GI50 in the assay with SF-295 is 64.4 µM (inactive); in the assay on SK-OV-3, > 100 µM (inactive); in the assay with SN12C, 53.2 µM (inactive); in the assay on SNB-19, 97.9 µM (inactive); with SNB-75, 23.4 µM (inactive).

For `CC/C=C\C/C=C\C/C=C\CCCCCCCC(=O)OCC(O)CO` (centres undefined), the GI50 with A498 was > 100 µM (inactive); in the assay with ACHN it was > 58.5 µM (inactive); with HCC 2998, > 100 µM (inactive); with HCT-15, above 63.4 µM; in the assay on HL-60, 20.7 µM (inactive); in the assay with HOP-62, > 100 µM (inactive). In addition, the GI50 in the assay on HT-29 is > 68.5 µM (inactive); in the assay on IGROV-1 it was > 92.3 µM (inactive); with K562, 2.46 µM (inactive); with LOX IMVI, 39.9 µM (inactive); with MOLT-4 it was > 46.2 µM (inactive); with NCI-H522, 22 µM (inactive). In addition, the GI50 in the assay on OVCAR-4 was > 84.3 µM (inactive); with RXF 393, > 100 µM (inactive); with SF-295 it was > 83.2 µM (inactive); in the assay on SK-OV-3 it was > 100 µM (inactive); in the assay with SN12C, > 95.1 µM (inactive); in the assay with SNB-19 it was > 100 µM (inactive). Further, the GI50 in the assay on SNB-75 is > 100 µM (inactive).
